In PubChem BioAssay (NCI):
Values joined by “and” are separate entries in the source; they are usually repeats but may differ in a detail not shown here. Equal entries are not always repeated.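 Results reflect a 48-hour exposure of cells in 96-well plates to compound at five concentrations. GI50 = concentration required for 50% inhibition of growth. TGI: total growth inhibition.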

Experiments:
Assay in all cases: growth of human tumour cells (NCI), 48 h
[1] = tested on: ACHN renal
[2] = tested on: CCRF-CEM leukemia
[3] = tested on: HCT-116 colon
[4] = tested on: K-562 leukemia
[5] = tested on: KM12 colon
[6] = tested on: SK-MEL-2 melanoma
[7] = tested on: SNB-75 CNS
[8] = tested on: SW-620 colon
[9] = tested on: U251 CNS
[10] = tested on: MDA-MB-435

Row | Compound | TGI [1] | TGI [2] | TGI [3] | TGI [4] | TGI [5] | TGI [6] | TGI [7] | TGI [8] | TGI [9] | GI50 [1] | GI50 [2] | GI50 [3] | GI50 [4] | GI50 [5] | GI50 [6] | GI50 [7] | GI50 [8] | GI50 [9] | GI50 [10] | TGI [10]
1 | O=C(O)CCC(NC(=O)c1ccccc1)C(=O)O (centres undefined) | > 100 µM | > 100 µM | > 100 µM | > 100 µM | > 100 µM | > 100 µM | > 100 µM | > 100 µM | > 100 µM |  |  |  |  |  |  |  |  |  |  | 
2 | COC(=O)[C@]12CC=C3O[C@@H]4OC5(CCCCC5)O[C@@H]4C3[C@@H]1C(=O)CCC2=O (some centres undefined) | > 100 µM | > 100 µM | > 100 µM | > 100 µM | > 100 µM | > 100 µM | > 100 µM | > 100 µM | > 100 µM |  |  |  |  |  |  |  |  |  |  | 
3 | COc1ccc(S(=O)(=O)Nc2cc(/C=C\c3cc(OC)c(OC)c(OC)c3)ccc2OC)cc1 | 17.3 µM | > 100 µM | > 100 µM | > 100 µM | > 100 µM | 93 µM | 91.4 µM | > 100 µM | > 100 µM | 0.0587 µM | 0.176 µM | 0.0797 µM | 0.053 µM | 0.0738 µM | 0.0803 µM | 0.0708 µM | 0.0785 µM | 0.108 µM |  | 
4 | Cc1c(C(=O)CC(=O)C(=O)Nc2ccc(Cl)cc2)[n+](=O)c2ccccc2n1[O-] | > 100 µM | > 100 µM | > 100 µM | > 100 µM | > 100 µM | > 100 µM | > 100 µM | > 100 µM | > 100 µM |  |  |  |  |  |  |  |  |  |  | 
5 | CN(C)C=[N+]=[N-] | > 100 µM |  | > 100 µM | > 100 µM | > 100 µM | > 100 µM | > 100 µM | > 100 µM | > 100 µM |  |  |  |  |  |  |  |  |  |  | 
6 | C/C=C1/CCC2c3[nH]c4ccccc4c3CCN2C1 (centres undefined) | > 100 µM | > 100 µM | > 100 µM | > 100 µM | > 100 µM | > 100 µM | > 100 µM | > 100 µM | > 100 µM |  |  |  |  |  |  |  |  |  |  | 
7 | COc1ccc(CC(=O)NCCc2ccc(OC)c(OC)c2)cc1Br | > 100 µM | > 100 µM |  | > 100 µM | > 100 µM | > 100 µM |  | > 100 µM | > 100 µM |  |  |  |  |  |  |  |  |  |  | 
8 | CC1=NN(C(=O)CC(=O)NC(=O)CC(=O)Nc2ccccc2F)C(=O)C1N=Nc1ccc([N+](=O)[O-])cc1 (centres undefined) | > 100 µM | 63.6 µM | 35.5 µM | 65.4 µM | > 100 µM | > 100 µM | 98.2 µM | 41.1 µM | 50 µM |  |  |  |  |  |  |  |  |  |  | 
9 | O=C(NCCCCCCNC(=O)OCCSCCn1cc(C(=O)NC(=O)OCc2ccccc2)c(=O)[nH]c1=O)OCCSCCn1cc(C(=O)NC(=O)OCc2ccccc2)c(=O)[nH]c1=O | > 100 µM | > 100 µM |  | > 100 µM | > 100 µM | > 100 µM |  | > 100 µM | > 100 µM |  |  |  |  |  |  |  |  |  |  | 
10 | O=C(O)CCSC(=O)Nc1ccccc1F | > 100 µM | > 100 µM | > 100 µM | > 100 µM | > 100 µM | > 100 µM |  | > 100 µM | > 100 µM |  |  |  |  |  |  |  |  |  |  | 
11 | CCCC/C=C1\CCC(C)(CN(C)C)C1=O (centres undefined) | > 100 µM | > 100 µM | > 100 µM | > 100 µM | > 100 µM | > 100 µM |  | > 100 µM | > 100 µM |  |  |  |  |  |  |  |  |  |  | 
12 | COc1ccc(S(=O)(=O)N/N=C/c2cc(I)cc([N+](=O)[O-])c2O)cc1OC | > 100 µM | > 100 µM |  | > 100 µM | > 100 µM | 45.6 µM |  | > 100 µM | > 100 µM |  |  |  |  |  |  |  |  |  |  | 
13 | COC(=O)NN=C1C(C)(C)C(=O)C1(C)C | > 100 µM | > 100 µM | > 100 µM | > 100 µM | > 100 µM | > 100 µM | > 100 µM | > 100 µM | > 100 µM |  |  |  |  |  |  |  |  |  |  | 
14 | Cc1[nH]c(=O)n2c(C)nnc2c1C(=O)Nc1cc(Cl)cc(Cl)c1 | > 100 µM | > 100 µM | > 100 µM | > 100 µM | > 100 µM |  | 88.9 µM | > 100 µM | 53.2 µM |  |  |  |  |  |  |  |  |  |  | 
15 | CN(C)CCNC(=O)c1cccc2[nH]c(-c3cccnc3)nc12 | 37 µM | > 100 µM | 42.8 µM | > 100 µM | > 100 µM | 62.8 µM | 73.3 µM | 42.1 µM | 74.7 µM |  |  |  |  |  |  |  |  |  |  | 
16 | O=[N+]([O-])c1cc(C2SCc3nc4ccccc4n32)ccc1Cl (centres undefined) | > 100 µM | 85.9 µM | 40.4 µM | > 100 µM | 31.3 µM | 50.9 µM | > 100 µM | > 100 µM | > 100 µM |  |  |  |  |  |  |  |  |  |  | 

Row | Compound | TGI [1] | TGI [2] | TGI [3] | TGI [4] | TGI [5] | TGI [6] | TGI [7] | TGI [8] | TGI [9] | GI50 [1] | GI50 [2] | GI50 [3] | GI50 [4] | GI50 [5] | GI50 [6] | GI50 [7] | GI50 [8] | GI50 [9] | GI50 [10] | TGI [10]
17 | C=C1C(=O)OC2C=C(CCC(C)=O)C(C)C(OC(C)=O)CC12 (centres undefined) | 19.7 µM | 12.4 µM | 21.2 µM | 44 µM | 30.5 µM | 27.9 µM | 24.4 µM | 1.22 µM | 31.1 µM |  |  |  |  |  |  |  |  |  |  | 
18 | Fc1ccccc1C1SCc2nc3ccccc3n21 (centres undefined) | > 100 µM | > 100 µM | > 100 µM | > 100 µM | > 100 µM | > 100 µM | > 100 µM | > 100 µM |  |  |  |  |  |  |  |  |  |  |  | 
19 | c1ccc2cc3[s+]snc3cc2c1 | > 100 µM | > 100 µM | > 100 µM | > 100 µM | > 100 µM | > 100 µM | > 100 µM | > 100 µM | > 100 µM |  |  |  |  |  |  |  |  |  |  | 
20 | O=C(c1ccccc1)[C@@H]1C[C@H](Sc2ccccc2)c2cc(Cl)ccc2N1 | > 100 µM |  | 68.4 µM | 74.3 µM | > 100 µM | 97.6 µM | 58.7 µM | 59.8 µM | 60.1 µM |  |  |  |  |  |  |  |  |  |  | 
21 | C[N+]1(C)C/C(=C\c2ccccc2)C(=O)/C(=C/c2ccccc2)C1 | > 100 µM | > 100 µM | > 100 µM | > 100 µM | > 100 µM |  | > 100 µM |  | > 100 µM |  |  |  |  |  |  |  |  |  |  | 
22 | COc1ccc(/C=C(\C#N)n2nnc3ccccc32)cc1 | 17.2 µM | > 100 µM | 2.15 µM | > 100 µM | > 21.7 µM | 51.1 µM | 0.337 µM | > 100 µM | > 32.6 µM | 0.434 µM | 0.295 µM | 0.0955 µM | 0.043 µM | 0.0948 µM | 0.437 µM | 0.0327 µM | 0.0603 µM | 0.414 µM |  | 
23 | Cc1cc(NS(=O)(=O)c2ccc(NC(=O)c3ccc(Cl)c4c(Nc5ccc(S(=O)(=O)N=C(N)N)cc5)c5ccccc5nc34)cc2)no1 | > 100 µM | 67.2 µM | > 100 µM | > 100 µM | > 100 µM |  | 95.6 µM |  | 38.9 µM |  |  |  |  |  |  |  |  |  |  | 
24 | CNC(=O)CC1NC(=O)c2csc(n2)-c2ccc(-c3nc(C4=NC(C(=O)N5CCCC5C(N)=O)CO4)cs3)nc2-c2csc(n2)-c2csc(n2)C(C(C)C)NC(=O)CNC(=O)c2csc(n2)C(C(C)C)NC(=O)c2nc1sc2C (centres undefined) | > 25 µM | > 25 µM | > 25 µM | > 25 µM | 4.34 µM and > 25 µM |  |  | > 25 µM | > 25 µM | > 25 µM | > 25 µM | > 25 µM | > 25 µM | > 25 µM |  | > 25 µM | > 25 µM | > 25 µM | < 0.001 µM | 
25 | CN1CC[C@]2(C)c3cc(O)ccc3CC3CCCC1C32C (some centres undefined) | > 100 µM | > 100 µM | > 100 µM | > 100 µM | > 100 µM |  | > 100 µM | > 100 µM | > 100 µM |  |  |  |  |  |  |  |  |  |  | 
26 | COc1cc(C(O)C(=O)c2nc3ccc([N+](=O)[O-])cc3[nH]c2=O)ccc1O (centres undefined) | > 100 µM | > 100 µM | > 100 µM | > 100 µM | > 100 µM | > 100 µM |  | > 100 µM | > 100 µM |  |  |  |  |  |  |  |  |  |  | 
27 | Cc1ccc(NC(=O)C(=O)CC(=O)c2c(C)n([O-])c3ccccc3[n+]2=O)cc1 | > 100 µM | 49 µM | 37.2 µM | 56.4 µM | > 100 µM | 53 µM | 58 µM | > 100 µM | 92.3 µM |  |  |  |  |  |  |  |  |  |  | 
28 | O=C1C2C=CC(C2)C(c2ccc(O)cc2)N1O (centres undefined) | > 100 µM | > 100 µM | > 100 µM | > 100 µM | > 100 µM | > 100 µM | > 100 µM | > 100 µM | > 100 µM |  |  |  |  |  |  |  |  |  |  | 
29 | CC(C)(CN1CCCCC1)C(=O)/C=C/c1ccc(Cl)cc1 | 17.2 µM | 7 µM | 13 µM | 12.3 µM | 11.2 µM |  | 11.4 µM | 10.8 µM | 11.7 µM |  |  |  |  |  |  |  |  |  |  | 
30 | COc1cc(-n2cc(-c3ccc(Cl)cc3)nc2SCc2cccc(C#N)c2)cc(OC)c1OC | > 100 µM | > 100 µM | > 100 µM | > 100 µM | > 100 µM |  | 9.77 µM | > 100 µM | > 100 µM | 37.6 µM | > 100 µM | 37.3 µM | > 100 µM | > 100 µM |  | 0.433 µM | 91.5 µM | 44.1 µM | 82.9 µM | > 100 µM
31 | O=c1nc(NC(c2ccccc2)(c2ccccc2)c2ccccc2)ccn1CCNCCn1ccc(NC(c2ccccc2)(c2ccccc2)c2ccccc2)nc1=O | > 100 µM | > 100 µM | 73 µM | > 100 µM | 11.9 µM | 9.32 µM | > 100 µM | 31.9 µM | 18.8 µM |  |  |  |  |  |  |  |  |  |  | 
